Measurements taken from patent US5972357A, “Healthy foods and cosmetics” (Kikkoman Corporation, priority 1996, dated 1999).

Assays:
gastric ulcer = test: anti-ulcer test against stress ulcer (restrained immersion into water); format: in vivo, Wistar/ST male rats; details: 200 mg/kg oral
Method: Gastric ulcer was induced in Wistar/ST male rats having a weight of about 200 g (6 w) by the stress of restrained immersion into water and the anti-ulcer effects of the test samples were examined in the following groups to which test samples were administered.
Each group comprises six rats.
Group 1: (control) physiological saline
Group 2: (comparative) cetraxate hydrochloride 200 mg/kg
Group 3: (the present invention) garcinol 200 mg/kg
In this connection, the test samples in the control, comparative group and the present invention group were prepared in the same manner as in Experimental Example 9.
Rats having fasted for 24 hours were locked up in a restrained dipping cage after 30 minutes from the oral administration of respective test samples. Next, rats were stressed by dipping the cage into water at 23° C. for 7 hours, and bleeded to death under anesthetization with nembutal, and stomach was isolated. A phosphate buffer (10 ml) containing 10% formalin was injected into the stomach, which was cut open after 10 minutes, and the length of lesion caused in the glandular stomach portion was defined as the lesion index, which was measured in the mm unit to evaluate the anti-ulcer effect.
The method for calculating the suppression rate (%) and the meaning of it has been described in Experimental Example 9.

mice = test system: mice; set-up: species or system ICR/crj male mice; details: mouse, in vivo
Method: ICR/crj male mice (5 week-old) having a weight of 29-32 g, each group comprising 5 animals.
Toxicity test by single administration was carried out in accordance with Guidelines of the Toxicity Test Method for Pharmaceuticals (Nichi-Yaku-Shin No. 118, released on Feb. 15, 1984, Notice of Second Section Manager of Examination of Pharmaceutical Affairs Bureau in Ministry of Health and Welfare to the Managers of Hygiene Division of Prefectures).
Garcinol was suspended into a physiological saline in a concentration of 30 mg/ml, and the suspension was administered orally to mice at a dose of 0.5 ml per 30 g of body weight (500 mg/kg of body weight) for observation for 14 days.

bovine serum albumin [1] = test: Maillard reaction inhibiting activity (bovine serum albumin/D-fructose); details: 0.1 mM, 37° C., 5 days, pH 7.4
Method: A solution containing bovine serum albumin (4 mg/ml), 500 mM D-fructose and 200 mM potassium phosphate buffer (pH 7.4) was aseptically prepared. To the solution was added 0.1 mM of a test substance. The substance insoluble in water was added as an ethanolic solution so as the final concentration of ethanol to be less than 1%. After incubation of these solutions at 37° C. for 5 days, equivalent volume of a cold 10% trichloroacetic acid solution was added to the solution to precipitate proteins. The precipitate was collected by centrifugation, further washed with a cold 5% trichloroacetic acid solution, and dissolved again in a 200 mM potassium phosphate buffer. The solution was diluted appropriately with distilled water, and the fluorescence intensity at 425 nm was measured with an excitation wave length at 350 nm in a fluorescence spectrophotometer (Shimadzu Seisakusho, Ltd.). The inhibition activity was calculated from the following equation.
Inhibition activity (%)=(Fc-Fs)/(Fc-Fb)×100
Fs: fluorescence intensity in the presence of test substance;
Fc: fluorescence intensity in the absence of test substance;
Fb: fluorescence intensity in the absence of fructose.

[2] = anti-oxidation activity in a lipid oxidation process promoted by a metal ion (copper sulfate); details: 5 μM copper sulfate added; lesser ratio = stronger
Method: The anti-oxidation activities was evaluated according to the method by A. Ben Aziz et al. (see Phytochemistry, 10, 1445, 1971). That is to say, an emulsion of linoleic acid and β-carotene was first prepared with Tween 20 (Sigma) and adjusted to pH 7.0 with 0.1 M trishydroxyaminomethane-hydrochloride. To the emulsion was added 0.0005% of a substance to be tested, and the mixture was reacted at 25° C.
During the reaction, the color degradation of β-carotene in association with the autoxidation of linoleic acid was measured with the passage of time as the decreased value of the optical density at 460 nm with a spectrophotometer.
The substance to be tested was a garcinal preparation obtained in Referential Example 1, and vitamin E and (+)-catechin were used as Comparative Example. The antioxidant activity was measured as a ratio of the decreasing rate of absorbance in the presence of the substance to be tested to the decreasing rate of absorbance in the absence of the antioxidant. That is, the substance is judged to have an antioxidant activity when the ratio is less than 1, and thus it is predicated that the lesser the ratio, the stronger the antioxidant activity.
The oxidation process of linoleic acid in Experimental Example 1 is promoted by a metal ion. If 5 μM of copper sulfate is added to the reaction system, the color-degradation rate of β-carotene is promoted by about 30%. When garcinol was added to this system, the ratio of the decreasing rate of absorbance was 0.57. In this connection, it was 0.13 for vitamin E and 0.84 for (+)-catechin.

[3] = DPPH radical scavenging activity
Method: The 1,1-diphenyl-2-picrylhydrazyl (DPPH) radical scavenging activity was tested with a garcinol preparation prepared in the similar manner as described in Referential Example 1. That is to say, a 1.0×10^-4 M solution (50% ethanolic) of DPPH was prepared, 0.0002% of a test substance was added, and the decrease of optical density at 528 nm was measured after 1 hour reaction at 25° C. for one hour. In this case, ascorbic acid was used as a standard, the decrease of the absorbance was expressed as 100, and the radical scavenging activity of the test substance was measured as equivalences to ascorbic acid. In this connection, a garcinol preparaion used as the test substance, and vitamin E and (+)-catechin were used as references.

bovine serum albumin [4] = test: suppression of generation of reactive oxygen species in the presence of metal ion (oxidation of bovine serum albumin in Fenton reaction); format: biochemical; details: 1 mM test substance, 10 μM copper ion, 20 mM hydrogen peroxide, 4 mg/ml BSA
Method: The activity for suppressing the generation of reactive oxygen species in the presence of metal ion was evaluated by measuring the effect for suppressing the oxidation of bovine serum albumin by hydroxyl radical in the Fenton reaction system. That is to say, hydroxyl radical was first produced by divalent copper ion and hydrogen peroxide (Fenton reaction). Bovine serum albumin was oxidized by the hydroxyl radical, and thus carbonyl was produced. The carbonyl was reacted with 2,4-dinitrophenylhydrazine, and determined by measuring the absorbance at 365 nm. […] The ratio of decreases of absorbance was expressed as the activity for suppressing the generation of reactive oxygen species in the presence of metal ion.

[5] = test system: Epstein-Barr virus early antigen (EBV-EA); test: EBV-EA induction inhibiting test (tumor promotion inhibition); format: cell-based, human lymphoblasts (Raji); details: Homo sapiens, Raji; 8 μg/ml; 3 mM n-butyric acid, 50 nM TPA, 37° C., 48 hours; read-out: suppression of the induction of EBV-EA
Method: The effect of inhibiting the tumor promotion was evaluated as follows mainly according to the EBV-EA induction inhibiting test described by Y. Ito et al.
The EBV potentially infected human lymphoblasts (Raji) were first prepared in a concentration of 5×10^5 cell/ml, and cultured in an RPMI-1640 medium to which 3 mM n-butyric acid (inducer) and 50 nM TPA (12-O-tetradecanoylphorbol-13-acetate) (promoter) were added in an atmosphere of 5% carbon dioxide and 95% air under at a temperature of 37° C. for 48 hours. The cells in which EBV-EA had been induced were detected microscopically by indirect immunofluorescence with the serum of a nasopharyngeal carcinoma (NPC) patient. In this system, various concentrations (8 μg/ml, 40 μg/ml, and 200 μg/ml) of the test substance (garcinol sample shown in Referential Example 1) dissolved in DMSO (dimethylsolfoxide) were added together with the promoter to the cells. The activity of suppressing the induction of the Epstein-Barr virus early antigen was defined as the decreasing rate of the cells in which EBV-EA had been induced.

For `C=C(C)[C@@H](CC=C(C)C)C[C@@]12C[C@@H](CC=C(C)C)C(C)(C)[C@@](CC=C(C)C)(C(=O)C(C(=O)c3ccc(O)c(O)c3)=C1O)C2=O` [garcinol], the Length of ulcer (gastric ulcer; restrained water immersion 23° C., 7 hours, control 44.20 ± 18.10) was 17.60 ± 9.96 mm, the Suppression rate (gastric ulcer; stress ulcer, vs. control) was 60.2% and the “microscopic disorders in tissues or organs (autopsy)” value (mice) was “no microscopic disorders in tissues or organs were observed”. For the same compound, the “Maillard reaction inhibition activity” value (bovine serum albumin [1]) was 97%, the “ratio of the decreasing rate of absorbance (antioxidant activity with metal ion)” value [2] was 0.57 and the “DPPH radical scavenging activity (equivalences to ascorbic acid = 100)” value ([3]; 0.0002% test substance, 1.0×10^-4 M DPPH, 25° C., 1 hour, 528 nm) was 85. For the same compound, the “radical scavenging activity per unit weight relative to vitamin E” value ([3]; per unit weight of vitamin E) was “about three times”, the “ratio for suppressing the oxidation of bovine serum albumin” value (bovine serum albumin [4]) was 55% and the inhibition at 8 µg/mL [5] was 58.2%.
